{
  "source": "paper PMC8550792",
  "about": "“Evolution of kinase polypharmacology across HSP90 drug discovery” (Cell Chemical Biology, 2021)",
  "origin": "cited, not measured here",
  "parameters_in_all_cases": "method as in Becher et al., 2013",
  "key": {"ABL1": {"biological_target": "ABL1", "details": "chemoproteomics; ref Becher et al., 2013; read-out: Kd,app (ATP-Mg), ABL1; cited from earlier work"}, "DDR1": {"biological_target": "DDR1", "details": "chemoproteomics; ref Becher et al., 2013; read-out: Kd,app (ATP-Mg), DDR1; cited from earlier work"}, "ABL2": {"biological_target": "ABL2", "details": "chemoproteomics; ref Becher et al., 2013; read-out: Kd,app (ATP-Mg), ABL2; cited from earlier work"}},
  "data": [
    {"smiles": "Nc1ncnc2c1ncn2[C@@H]1O[C@H](COP(=O)(O)OP(=O)(O)OP(=O)(O)O)[C@@H](O)[C@H]1O", "note": "[ATP-Mg]", "values": [
      {"measurement": "Kd", "setting": "ABL1", "result": "37 to 99", "unit": "µM"},
      {"measurement": "Kd", "setting": "DDR1", "result": "> 1000", "unit": "µM"},
      {"measurement": "Kd", "setting": "ABL2", "result": 423, "unit": "µM"}
    ]}
  ]
}
